Measured values published in ChEMBL document CHEMBL1201862, “PubChem BioAssay data set” (2004).
Active and inactive are the calls of the source.

Experiments:
[1] = molecular target: Voltage-gated inwardly rectifying potassium channel KCNH2 (Homo sapiens, UniProt Q12809); experiment: concentration-dependent hERG rescue from blockers – cell-based, thallium flux, dose response (AID 2121); format: ADME
[2] = molecular target: 26S proteasome non-ATPase regulatory subunit 14 (Homo sapiens, UniProt O00487); experiment: inhibition of proteasome subunit RPN11 – biochemical, fluorescence polarization, uHTS hits, confirmation (AID 602368); format: functional
[3] = molecular target: 72 kDa type IV collagenase (Homo sapiens, UniProt P08253); experiment: Dose Response validation of uHTS RPN11 inhibitor hits using a MMP-2 Fluorescence assay.; format: functional
Prothrombin = Prothrombin (Bos taurus, UniProt P00735); experiment: thrombin protease inhibitors – biochemical, fluorescence polarization, uHTS hits, dose response (AID 602369); format: functional
[4] = Luminescence-based cell-based high throughput dose response assay to identify activators of the DAF-12 from the parasite S. stercoralis (ssDAF-12).; format: functional
[5] = molecular target: T1, Oxysterols receptor LXR-beta (Homo sapiens, UniProt P55055); experiment: LXR agonists, Gal4 luciferase reporter, dose response, counter-screen for ssDAF-12 agonist project, cell-based, luminescence, HEK293, S. stercoralis campaign (AID 720737); format: functional; settings: read-out: IC50 (the source's name)
T1 sequence (P55055 whole entry): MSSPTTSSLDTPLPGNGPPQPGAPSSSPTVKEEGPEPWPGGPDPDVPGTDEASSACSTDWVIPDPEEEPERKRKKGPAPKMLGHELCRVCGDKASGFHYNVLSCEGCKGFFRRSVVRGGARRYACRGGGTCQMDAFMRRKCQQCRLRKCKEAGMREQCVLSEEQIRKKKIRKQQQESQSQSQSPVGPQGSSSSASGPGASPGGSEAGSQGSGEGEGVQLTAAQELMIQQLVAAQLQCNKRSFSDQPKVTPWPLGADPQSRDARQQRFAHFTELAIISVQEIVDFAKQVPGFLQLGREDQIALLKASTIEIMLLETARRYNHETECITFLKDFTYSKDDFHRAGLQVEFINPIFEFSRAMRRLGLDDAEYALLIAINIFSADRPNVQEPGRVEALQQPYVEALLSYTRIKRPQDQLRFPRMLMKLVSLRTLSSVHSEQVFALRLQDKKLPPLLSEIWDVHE

[6] = microbe, parasite or virus in culture; format: functional; settings: Mycobacterium tuberculosis
Melanocortin receptor 4 = Melanocortin receptor 4 (Homo sapiens, UniProt P32245); experiment: inhibitors of MC4R cAMP signaling – cell-based, TR-FRET, biased antagonists, dose response (AID 602298); format: functional;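 also: antagonist potency against agonist-stimulated cAMP production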
[7] = cAMP pathway inhibition in counterscreen cell line – TR-FRET cAMP detection, counter-screen for MC4R biased antagonist project, dose response (AID 602305); format: functional, cell-based;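 also: U2OS cells stimulated with forskolin near its EC80 as the cAMP inducer; potency is for inhibition of forskolin-stimulated cAMP signaling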

Chain of Melanocortin receptor 4 (P32245 whole entry): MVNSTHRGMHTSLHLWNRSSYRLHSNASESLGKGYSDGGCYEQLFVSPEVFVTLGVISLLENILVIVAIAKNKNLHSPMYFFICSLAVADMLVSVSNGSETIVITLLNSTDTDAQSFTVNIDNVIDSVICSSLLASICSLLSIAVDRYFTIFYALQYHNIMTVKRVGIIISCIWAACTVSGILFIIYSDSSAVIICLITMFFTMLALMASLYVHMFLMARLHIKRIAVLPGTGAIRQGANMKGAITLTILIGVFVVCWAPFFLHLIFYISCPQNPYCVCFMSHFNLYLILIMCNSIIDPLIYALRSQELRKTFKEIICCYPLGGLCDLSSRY
Chain of Voltage-gated inwardly rectifying potassium channel KCNH2 (Q12809 whole entry): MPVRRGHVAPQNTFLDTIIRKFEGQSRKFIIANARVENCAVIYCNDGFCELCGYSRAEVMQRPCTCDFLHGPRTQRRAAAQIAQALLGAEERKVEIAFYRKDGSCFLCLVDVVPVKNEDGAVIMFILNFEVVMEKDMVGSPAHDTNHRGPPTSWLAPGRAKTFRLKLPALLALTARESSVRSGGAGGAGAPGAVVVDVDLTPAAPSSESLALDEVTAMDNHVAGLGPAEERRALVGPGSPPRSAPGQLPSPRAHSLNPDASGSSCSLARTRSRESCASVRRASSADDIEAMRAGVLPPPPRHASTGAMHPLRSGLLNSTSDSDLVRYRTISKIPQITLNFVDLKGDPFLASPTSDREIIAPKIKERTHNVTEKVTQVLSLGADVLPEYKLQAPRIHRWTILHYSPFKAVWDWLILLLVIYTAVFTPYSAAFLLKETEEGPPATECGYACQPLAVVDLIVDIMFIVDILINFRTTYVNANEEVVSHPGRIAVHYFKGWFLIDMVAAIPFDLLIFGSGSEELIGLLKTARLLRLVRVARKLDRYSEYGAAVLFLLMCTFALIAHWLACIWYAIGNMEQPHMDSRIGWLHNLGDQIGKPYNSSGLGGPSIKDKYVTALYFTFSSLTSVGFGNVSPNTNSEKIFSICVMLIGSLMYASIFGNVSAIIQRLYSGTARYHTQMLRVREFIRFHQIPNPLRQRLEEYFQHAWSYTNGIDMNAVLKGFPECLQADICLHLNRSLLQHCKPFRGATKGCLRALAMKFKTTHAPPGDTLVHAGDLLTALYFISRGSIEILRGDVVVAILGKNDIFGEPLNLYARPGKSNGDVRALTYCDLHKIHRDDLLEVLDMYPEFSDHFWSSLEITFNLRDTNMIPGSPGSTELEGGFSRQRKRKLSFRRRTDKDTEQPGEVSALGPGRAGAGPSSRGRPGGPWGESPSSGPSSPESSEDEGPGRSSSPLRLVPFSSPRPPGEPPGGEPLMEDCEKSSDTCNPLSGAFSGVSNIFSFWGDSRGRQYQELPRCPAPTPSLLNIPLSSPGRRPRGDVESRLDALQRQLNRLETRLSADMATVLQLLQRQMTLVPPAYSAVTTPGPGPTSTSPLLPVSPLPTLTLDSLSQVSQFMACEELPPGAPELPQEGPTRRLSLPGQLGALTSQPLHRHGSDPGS
Chain of 26S proteasome non-ATPase regulatory subunit 14 (O00487 whole entry): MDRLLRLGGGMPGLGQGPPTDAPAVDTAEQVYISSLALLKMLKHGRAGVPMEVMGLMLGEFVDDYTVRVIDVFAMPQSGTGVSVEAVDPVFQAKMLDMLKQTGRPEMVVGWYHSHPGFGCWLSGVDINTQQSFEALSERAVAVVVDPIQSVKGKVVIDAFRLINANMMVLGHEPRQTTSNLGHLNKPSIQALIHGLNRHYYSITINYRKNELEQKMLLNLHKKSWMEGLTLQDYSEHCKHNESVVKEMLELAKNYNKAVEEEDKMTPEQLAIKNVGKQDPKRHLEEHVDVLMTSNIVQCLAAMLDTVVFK
Chain of 72 kDa type IV collagenase (P08253 whole entry): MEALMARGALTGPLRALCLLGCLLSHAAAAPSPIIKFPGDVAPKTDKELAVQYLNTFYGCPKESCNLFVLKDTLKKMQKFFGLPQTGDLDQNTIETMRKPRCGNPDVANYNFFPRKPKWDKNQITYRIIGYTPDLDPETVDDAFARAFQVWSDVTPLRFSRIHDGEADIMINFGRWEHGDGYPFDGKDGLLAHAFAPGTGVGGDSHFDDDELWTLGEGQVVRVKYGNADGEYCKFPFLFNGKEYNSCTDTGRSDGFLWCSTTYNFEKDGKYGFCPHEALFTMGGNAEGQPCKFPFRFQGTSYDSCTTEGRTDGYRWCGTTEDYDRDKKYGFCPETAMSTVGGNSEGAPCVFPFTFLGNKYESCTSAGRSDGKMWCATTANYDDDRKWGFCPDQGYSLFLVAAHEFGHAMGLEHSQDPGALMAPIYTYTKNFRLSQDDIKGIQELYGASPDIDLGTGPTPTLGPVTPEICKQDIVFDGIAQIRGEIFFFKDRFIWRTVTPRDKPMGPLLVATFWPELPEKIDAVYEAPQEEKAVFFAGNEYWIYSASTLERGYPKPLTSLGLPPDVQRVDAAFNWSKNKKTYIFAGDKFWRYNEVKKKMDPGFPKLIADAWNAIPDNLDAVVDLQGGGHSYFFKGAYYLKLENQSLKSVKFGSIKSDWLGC

Q: Which EC50 [1] does the source give for `O=C(CSc1nc2cc(Cl)ccc2s1)c1cc2ccccc2o1` here?
A: The EC50 was 0.35 µM (active).

Q: What about the IC50 [2] of the same molecule?
A: Its IC50 is 24.5 µM (active).

Q: And the IC50 [3]?
A: The IC50 was 18.8 µM (active).

Q: What about the IC50 (Prothrombin) of the same molecule?
A: Its IC50 is 28.5 µM (active).

Q: What about the IC50 [4] of the same molecule?
A: The IC50 was > 67.5 µM (inactive).

Q: What about the EC50 [5] of the same molecule?
A: The EC50 was > 67.5 µM (inactive).

Q: For `COc1cc2c(cc1NC(=O)CN1C(=O)NC3(CCc4ccccc43)C1=O)oc1ccccc12` (centres undefined), which CC50 [6] is on record?
A: Its CC50 is 23.6 µM (active).

Q: And the IC50 (Melanocortin receptor 4)?
A: Its IC50 is > 64.6 µM (inactive).

Q: And the IC50 [7]?
A: Its IC50 is > 64.6 µM (inactive).
